{"source": "patent US20070098735A1", "about": "“Methods for the Elimination of Pathogens and Other Particulate Agents” (priority 2005, published 2007)", "key": {"[1]": {"test_system": "macrophage phagocytosis in wounded mice", "test": "Inhibition of phagocytosis in vivo by gadolinium chloride, wound closure", "conditions": "GdCl3 10 mg/kg IV day -1 and day 0; HSP70 30 μg/dose SC day 0", "experimental": "Inhibition of Phagocytosis In vivo. Intravenous injection of gadolinium chloride inhibits phagocytosis of macrophages without affecting their viability or affecting other cell types. Mice were treated (on day minus-1 and day 0) with GdCl3 (10 mg/kg body weight in 200 μl of distilled water) administered intravenously via the retro-orbital venous plexus. Subsequently the mice were wounded as previously described (Day 0) and treated with PBS and HSP70 (30 μg/dose) given subcutaneously on day 0.\nTreatment groups shown are (i) HSP70 alone; (ii) HSP70+GdCl3; (iii) PBS alone; and (iv) PBS+GdCl3. *P values were obtained using the Student's t-test by comparing the percent inhibition in wound closure of gadolinium chloride plus treatment to percent wound closure of the treatment alone."}, "[2]": {"test_system": "Murine macrophage lines (RAW264.7, J774.A1 or RAW264NO-)", "test": "Phagocytosis assay in vitro (uptake of Alexa Fluor 488-labeled particles)", "type": "cell-based", "set-up": "effect of LR-disrupting drugs on HSP70-mediated phagocytosis: dose or concentration left out as unconfirmed", "experimental": "Phagocytosis Assay in vitro. RAW 264.7, RAW264.7 (NO-) and J774A.1 cells were cultured in DMEM or RPMI (RAW NO-) with 10% FCS, harvested, and washed. 3×10^5 cells/well were incubated in serum-free Earle's minimal essential medium (EMEM) in a 24-well plate for 1 hour at 37° C. Alexa Fluor® 488-labeled particles (inert polystyrene microspheres; or yeast, Saccharomyces cerevisiae or Gram-negative bacteria, Escherichia coli, 40 particles/macrophage) were added and co-incubated in a dark environment for 60 minutes in serum free EMEM with or without HSPs, LPS, or control proteins. At the end of 60 minutes incubation, the plate was covered in a dark container on ice. Specific measures were taken to exclude the fluorescence that resulted from particles that were outside of the cell or sticking to the surface of the cell. […] Specifically, trypan blue (0.8 mg/ml) was added for 60 seconds and plates were analyzed immediately using FluorImager SI (Molecular Dynamics/Amersham). Since the emission of Alexa Fluor® 488, about 519 nm at an excitation of about 490 nm, falls within the absorbance range of trypan blue (475-675 nm), the fluorescence of the sample only represents the intracellular fluorescence. External or surface-bound fluorescence is quenched. Using Student's t test, the results were analyzed and P-values were calculated.\nHSP-mediated phagocytosis was quantified by measuring the internalized fluorescence measured by FluorImager SI and Relative Mean Fluorescence Intensity (RMFI) was compared between the treatment groups (as indicated). All the treatment groups were compared to medium alone using the Student's t test and significance denoted by P<0.01. The error bar represents one standard deviation. The results shown are a cumulative analysis of 3 experiments, 3 wells/group."}, "[3]": {"test_system": "lipid raft (LR) microdomain of the macrophage plasma membrane", "test": "Binding of exogenous HRP-labeled HSP70 to purified lipid raft fractions", "set-up": "species or system murine", "conditions": "MCD (30 mM); HRP-labeled HSP70 100 μg/ml; Triton X-100", "experimental": "Purification of lipid rafts. Lipid rafts were purified as DRMs (detergent resistant membrane) using non-ionic detergents following sucrose gradient centrifugation. […] After incubation, cells were washed 3× with PBS and lysed with 2 ml MES (4-morpholinoethanesulfonic acid) buffered saline (MBS; 150 mM NaCl, 20 mM MES, pH 6.5, […] and 5 mM iodoacetamide) containing 0.5% Triton X-100 or 1% for 30 minutes on ice or 7 minutes at 37° C. respectively. The cells were mixed with an equal volume of 90% sucrose in MEB buffer (150 mM NaCl, 20 mM MES [pH 6.5]) and placed at the bottom of the centrifuge tube. […] Fractions of 1 ml each were collected from the bottom of tube and each fraction was analyzed by SDS-PAGE and immunoblotting.\nBriefly, RAW264.7 macrophages were treated with exogenous HRP-labeled HSP70 (100 μg/ml) or were left untreated for 60 minutes and washed with PBS three times to remove free HSPs. […] These fractions obtained (light: LR and heavy: non-LR) were then analyzed using immunoblotting to detect HRP activity of HSP70-HRP complexes or tested for the presence of an LR-associated ganglioside GM1 by using HRP-cholera toxin B. Similarly, these fractions were tested for the amount of cholesterol using (Biovision Research Products, CA). […]"}, "macrophages": {"test_system": "macrophages", "test": "Trypan blue exclusion viability of treated macrophages", "conditions": "MCD-treated cells"}}}
{"compound": "[Cl][Gd]([Cl])[Cl]", "note": "[GdCl3, gadolinium chloride]", "values": [{"measurement": "inhibition of the HSP70-mediated effects on wound healing", "setting": "[1]", "value": "up to 67%"}]}
{"compound": "methyl-β-cyclodextrin [MCD]", "values": [{"measurement": "dose dependence of inhibitory effect on macrophage response to HSP70", "setting": "[2]; MCD 0-30 mM, HSP70 100 μg/ml", "value": "titratable"}, {"measurement": "effect of LR-disrupting drugs on HSP70-mediated phagocytosis", "setting": "[2]; nystatin or MCD, labeled yeast 40 particles/macrophage", "value": "HSP70-mediated phagocytosis was inhibited"}, {"measurement": "effect on binding of exogenous HSP70 to lipid rafts", "setting": "[3]", "value": "significant reduction in the binding of exogenously administered HSP70"}, {"measurement": "viability (trypan blue exclusion)", "setting": "macrophages", "value": 95, "unit": "%"}]}
